From PubChem BioAssay (NCI)
Values joined by “and” are separate entries in the source; they are usually repeats but may differ in a detail not shown here. Equal values may be shown once.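 Five compound concentrations were applied to cells in 96-well plates for 48 hours; endpoints were derived by simple linear interpolation of the resulting dose-response curve. GI50 marks 50% less growth. The concentration for full growth arrest is given as TGI.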

Legend:
Test in all cases: DTP human tumour cell line panel, 48 h
U251 CNS = test system: U251 CNS
HT29 colon = test system: HT29 colon
MDA-MB-231 breast = test system: MDA-MB-231 breast
MOLT-4 leukemia = test system: MOLT-4 leukemia
HL-60(TB) leukemia = test system: HL-60(TB) leukemia
T-47D breast = test system: T-47D breast
SNB-75 CNS = test system: SNB-75 CNS
OVCAR-3 ovarian = test system: OVCAR-3 ovarian
OVCAR-8 ovarian = test system: OVCAR-8 ovarian
SK-OV-3 ovarian = test system: SK-OV-3 ovarian

Structure (SMILES) | GI50 (U251 CNS) | TGI (U251 CNS) | GI50 (HT29 colon) | TGI (HT29 colon) | GI50 (MDA-MB-231 breast) | TGI (MDA-MB-231 breast) | GI50 (MOLT-4 leukemia) | TGI (MOLT-4 leukemia) | GI50 (HL-60(TB) leukemia) | TGI (HL-60(TB) leukemia) | GI50 (T-47D breast) | TGI (T-47D breast) | GI50 (SNB-75 CNS) | TGI (SNB-75 CNS) | GI50 (OVCAR-3 ovarian) | TGI (OVCAR-3 ovarian) | GI50 (OVCAR-8 ovarian) | TGI (OVCAR-8 ovarian) | GI50 (SK-OV-3 ovarian) | TGI (SK-OV-3 ovarian)
COc1cc(C(=O)n2nc(N3CCN(C)CC3)c3cc(N)ccc32)cc(OC)c1OC | 3.65 µM | 25.8 µM | 3.65 µM | 14.9 µM | 2.92 µM | 21.6 µM | 3.78 µM | 43.9 µM | 2.16 µM | 5.14 µM | > 100 µM | > 100 µM | 4.39 µM | > 100 µM | 2.39 µM | 5.62 µM | 4.77 µM | > 100 µM | 4.26 µM | 93.2 µM
O=C(O)CCC1CCC(c2cc(F)ccc2F)(S(=O)(=O)c2ccc(Cl)cc2)CC1 (configuration not stated) | 32.7 µM and > 100 µM | > 100 µM | 30.3 µM and > 100 µM | > 100 µM | 30.4 µM and > 100 µM | > 100 µM | 41.2 µM and > 59.7 µM | > 100 µM | 31.3 µM and > 81 µM | > 100 µM | 28.6 µM and > 100 µM | > 100 µM | 15.9 µM and > 72.2 µM | 55.8 µM and > 100 µM | 22.7 µM and > 100 µM | 63.5 µM and > 100 µM | 74.8 µM and > 100 µM | > 100 µM | 32.1 µM and > 100 µM | > 100 µM
[N-]=[N+]=CC(=O)OCC(N)C(=O)O (configuration not stated) | 0.778 µM | > 100 µM | 0.277 µM | > 100 µM | 0.763 µM | > 100 µM | 0.638 µM | > 100 µM | 0.918 µM | > 100 µM | 12.4 µM | > 100 µM | 2.68 µM | > 100 µM | 3.73 µM | > 100 µM | 0.923 µM | > 100 µM | 0.808 µM | > 100 µM
CC(C)=CCC/C(C)=C/CC/C(=C/COP(=O)(OCc1ccc([N+](=O)[O-])o1)N(C)CCCCCl)C(C)(C)C (configuration not stated) | 1.76 µM | 12 µM | 12.5 µM | 38.9 µM | – | 1.03 µM | 1.82 µM | > 100 µM | 4.18 µM | > 100 µM | 16.4 µM | 51.5 µM | 15.6 µM | 40 µM | 1.94 µM | 3.66 µM | 10.7 µM | 36.1 µM | 18.1 µM | 38.7 µM
O=C1/C(=C/C(Cl)=C/c2ccccc2)SC(=S)N1CCc1ccc(O)cc1 | 1.23 µM | 2.66 µM | 2.11 µM | 5.57 µM | 3.82 µM | 34.3 µM | 2.2 µM | > 100 µM | 1.5 µM | > 100 µM | 2.02 µM | 5.61 µM | 1.31 µM | 5.62 µM | 1.91 µM | 4.34 µM | 0.596 µM | 16.3 µM | 5.53 µM | > 100 µM
CCOC(=O)c1cc2ncccc2c2ccccc12 | – | > 100 µM | – | > 100 µM | – | > 100 µM | – | > 100 µM | – | > 100 µM | – | > 100 µM | – | > 100 µM | – | > 100 µM | – | > 100 µM | – | > 100 µM
CCOC(=O)c1c(Cl)c2c(n1Cc1cc(OC)cc(OC)c1)-c1oncc1CCC2 | 0.351 µM | > 100 µM | 0.314 µM | 68 µM | 0.812 µM | > 91.7 µM | 0.512 µM | > 100 µM | 0.293 µM | 1.03 µM | 0.445 µM | > 100 µM | 0.229 µM | 4.41 µM | 0.253 µM | 2.51 µM | 0.479 µM | > 100 µM | 0.4 µM | 49.6 µM
CC(C)(O)[C@H]1[C@@H]2OC(=O)[C@H]1[C@]1(O)C[C@H]3OC34C(=O)O[C@H]2[C@@]41C (some centres not stated) (tested in a mixture with another compound) | – | > 100 µM | – | > 100 µM | – | > 100 µM | – | > 100 µM | – | > 100 µM | – | > 100 µM | – | > 100 µM | – | > 100 µM | – | > 100 µM | – | > 100 µM
COc1ccc(F)cc1C(=O)c1cnc(NC2CCN(S(C)(=O)=O)CC2)nc1N | 1.07 µM | > 19.6 µM | 2.86 µM | > 18.2 µM | 2.49 µM | > 25 µM | 2.66 µM | > 19 µM | 1.66 µM | 18.1 µM | 4.49 µM | > 22.6 µM | 3.97 µM | 10.2 µM | 4.15 µM | 14.6 µM | 3.95 µM | > 21.6 µM | 8.82 µM | > 25 µM
Cc1ccc(C(=O)NC2CCCCC2)cc1-c1ccc(C(=O)NCC2CC2)cc1 | > 25 µM | > 25 µM | > 25 µM | > 25 µM | > 25 µM | > 25 µM | > 25 µM | > 25 µM | > 25 µM | > 25 µM | 9.51 µM | > 25 µM | > 25 µM | > 25 µM | > 23 µM | > 25 µM | > 25 µM | > 25 µM | > 25 µM | > 25 µM
O=C1C=CC2(C=C1)CCN=c1c(O)c3c(c(O)c12)=NC=N3 | 10.6 µM and > 100 µM | 24.1 µM and > 100 µM | 20.3 µM and > 100 µM | 47.3 µM and > 100 µM | 14.4 µM and > 100 µM | 31.8 µM and > 100 µM | 21.7 µM and > 100 µM | > 100 µM | 8.02 µM and 59.9 µM | > 100 µM | – | 25.2 µM and > 100 µM | 17.8 µM and > 100 µM | 35.2 µM and > 100 µM | – | 25 µM and > 100 µM | 14 µM and > 100 µM | 37.3 µM and > 100 µM | 18.3 µM and > 100 µM | 33.2 µM and > 100 µM
O=C(O)CC1(C(=O)O)CCCCC1 | – | > 100 µM | – | > 100 µM | – | > 100 µM | – | > 100 µM | – | > 100 µM | – | > 100 µM | – | > 100 µM | – | > 100 µM | – | > 100 µM | – | > 100 µM
CO[C@H](C(=O)N[C@@H](CCCCNC(=O)OCc1ccccc1)C(=O)OC(C)(C)C)[C@@H]1Cc2cc3cc(OC4CC(OC5CC(O)C(O)C(C)O5)C(O)C(C)O4)c(C)c(O)c3c(O)c2C(=O)[C@H]1OC1CC(OC2CC(OC3CC(C)(O)C(O)C(C)O3)C(O)C(C)O2)C(O)C(C)O1 (some centres not stated) | 0.529 µM | 1.94 µM | 0.508 µM | > 10 µM | 0.939 µM | 3.1 µM | 0.381 µM | 2.73 µM | 0.971 µM | 5.92 µM | 0.958 µM | > 10 µM | 0.541 µM | 1.97 µM | 1.39 µM | > 10 µM | 0.697 µM | > 10 µM | 1.02 µM | 2.81 µM
